In patent US6767991B1, “Hepatitis C inhibitor peptides” (priority 1997, dated 2004) one finds IC50 data, which are given here for 19 compounds.

The experiment has as its target T1, HCV NS3 protease type 1b/NS4A cofactor peptide (Hepatitis C virus genotype 1b, UniProt P26663).
T1 construct: recombinant HCV NS3 protease (amino acid 1027 to 1206) was cloned in the pET11d bacterial expression vector; made in house; host or cells: E. coli BL21(DE3)pLysS
Kind of experiment: Recombinant HCV NS3 protease/NS4A cofactor peptide radiometric assay. In kind it is biochemical, HCV genotype 1b. Conditions: read-out: IC50. The method, then: Recombinant HCV NS3 Protease/NS4A Cofactor Peptide Radiometric Assay.
The enzyme was stored at −80° C., thawed on ice and diluted just prior to use in the assay buffer containing the NS4A cofactor peptide.
The substrate used for the NS3 protease/NS4A cofactor peptide radiometric assay, DDIVPC-SMSYTW [SEQ. ID NO. 2], is cleaved between the cysteine and the serine residues by the enzyme. The sequence DDIVPC-SMSYTW [SEQ. ID NO. 2] corresponds to the NS5A/NS5B natural cleavage site in which the cysteine residue in P2 has been substituted for a proline. The peptide substrate DDIVPC-SMSYTW [SEQ. ID NO. […] ID NO. […] [SEQ. ID NO. 5] (molar ratio enzyme: cofactor 1:100) in the absence or presence of inhibitors. The separation of substrate from products is performed by adding avidin-coated agarose beads to the assay mixture followed by filtration. […] ID NO. 4] product found in the filtrate allows for the calculation of the percentage of substrate conversion and of the percentage of inhibition.
Tris and Tris-HCl (UltraPure) were obtained from Gibco-BRL. Glycerol (UltraPure), MES and BSA were purchased from Sigma. TCEP was obtained from Pierce, DMSO from Aldrich and NaOH from Anachemia.
Assay buffer: 50 mM Tris HCl, pH 7.5, 30% (w/v) glycerol, 1 mg/mL BSA, 1 mM TCEP (TCEP added just prior to use from a 1 M stock solution in water).
Substrate: […] [SEQ. ID NO.
ID NO. 3] (˜1 nM final concentration).
The assay was performed in a 96-well polypropylene plate from Costar. Each well contained:
20 μL substrate/tracer in assay buffer;
10 μL±inhibitor in 20% DMSO/assay buffer;
10 μL NS3 protease 1b/NS4 cofactor peptide (molar ratio 1:100).
Blank (no inhibitor and no enzyme) and control (no inhibitor) were also prepared on the same assay plate.
The enzymatic reaction was initiated by the addition of the enzyme/NS4A peptide solution and the assay mixture was incubated for 40 min at 23° C. under gentle agitation. Ten (10) μL of 0.5N NaOH were added and 10 μL 1 M MES, pH 5.8 were added to quench the enzymatic reaction.
Twenty (20) μL of avidin-coated agarose beads (purchased from Pierce) were added in a Millipore MADP N65 filtration plate. The quenched assay mixture was transferred to the filtration plate, and incubated for 60 min at 23° C. under gentle agitation.
The plates were filtered using a Millipore MultiScreen Vacuum Manifold Filtration apparatus, and 40 μL of the filtrate was transferred in an opaque 96-well plate containing 60 μL of scintillation fluid per well.
The % inhibition was calculated with the following equation:
100-[(countsinh-countsblank)/(countsctl-countsblank)×100]

Setting [1] is: Table 2, unmarked values: NS3 protease/NS4A cofactor peptide radiometric assay.
Where [2] appears, read: Table 1, unmarked values: NS3 protease/NS4A cofactor peptide radiometric assay.

Structures are written as SMILES. Like-named read-outs stand apart in the source and are kept apart here. *1 amine or outer side, *2 acyl side, *3 side chain or, on linkers, in order; H or OH if unused. Where a SMILES comes first, the peptide text is derived from it. [ ]: non-standard residue; d: D form. The star is where a group is joined. Acca(2-Et,1R,2R) = CC[C@@H]1C[C@]1(N)C(=O)O; CH2(1-naphthyl) = c1ccc2c(C*)cccc2c1; Glutaryl = O=C(CCCC(=O)[*:2])[*:1]; Hyp = O=C(O)[C@@H]1C[C@@H](O)CN1; Chg = N[C@H](C(=O)O)C1CCCCC1; Suc = O=C(CCC(=O)[*:2])[*:1]; X5 = CC(C)(C)c1ccc(C*)cc1; Ac5c = NC1(C(=O)O)CCCC1; Nva = CCC[C@H](N)C(=O)O; X1 = c1ccc2cc(C*)ccc2c1; Abu = CC[C@H](N)C(=O)O; Ac3c = NC1(C(=O)O)CC1; OBn = c1ccc(CO*)cc1; X2 = Brc1cccc(C*)c1; X6 = Ic1cccc(C*)c1; Bn = c1ccc(C*)cc1

T1 sequence (P26663 1027-1206, other chains not shown): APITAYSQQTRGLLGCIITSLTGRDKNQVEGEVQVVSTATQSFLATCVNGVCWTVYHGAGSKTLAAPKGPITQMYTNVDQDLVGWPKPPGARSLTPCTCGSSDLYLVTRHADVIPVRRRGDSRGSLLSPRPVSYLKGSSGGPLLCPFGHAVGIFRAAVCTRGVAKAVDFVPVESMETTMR

Broadly, the IC50 is the midpoint of a concentration-inhibition curve. In the case of `CC(=O)N[C@H](C(=O)N[C@H](C(=O)N1C[C@H](Oc2ccc(I)cc2)C[C@H]1C(=O)NC1(C(=O)O)CC1)C(C)C)C1CCCCC1` [compound 249], the half-inhibitory concentration (IC50) under setting [1] was determined as 9.7 µM.

For `CC(=O)N[C@H](C(=O)N[C@H](C(=O)N1C[C@H](Oc2ccccc2Br)C[C@H]1C(=O)NC1(C(=O)O)CC1)C(C)C)C1CCCCC1` [compound 239], the IC50 under setting [1] came to 27 µM. Same read-out and setting: with `CC(=O)N[C@@H](CC(=O)O)C(=O)N[C@H](CCC(=O)O)C(=O)N[C@H](C(=O)N[C@H](C(=O)N1C[C@H](OCc2cccc3ccccc23)C[C@H]1C(=O)NC1(C(=O)O)CC1)C(C)C)C1CCCCC1` [compound 215] (Ac-D[dE][Chg]V[Hyp](CH2(1-naphthyl))[Ac3c]-OH) the figure was 0.014 µM. On to `CC[C@@H]1C[C@]1(NC(=O)[C@@H]1C[C@@H](OCc2ccccc2)CN1C(=O)[C@@H](NC(=O)[C@@H](NC(=O)[C@@H](CCC(=O)O)NC(=O)[C@H](CC(=O)O)NC(C)=O)[C@@H](C)CC)C(C)C)C(=O)O` [compound 517] (Ac-D[dE]IV[Hyp](Bn)[Acca(2-Et,1R,2R)]-OH), for which, under “Table 5, first line of the cell, NS3 protease/NS4A cofactor peptide radiometric assay (Example 38)”, the IC50 is 0.075 µM.

Turning to `CC(=O)N[C@H](C(=O)N[C@H](C(=O)N1C[C@H](OCc2cccc(Br)c2)C[C@H]1C(=O)NC1(C(=O)O)CC1)C(C)C)C1CCCCC1` [compound 268] (Ac-[Chg]V[Hyp](X2)[Ac3c]-OH), under setting [1], the IC50 is 24 µM.

In the case of `CC[C@H](NC(=O)[C@@H]1CCCN1C(=O)[C@@H](NC(=O)[C@@H](NC(=O)[C@H](CC(=O)O)NC(=O)[C@H](CC(=O)O)NC(C)=O)[C@@H](C)CC)C(C)C)C(=O)O` [compound 122] (Ac-DDIVP[Abu]-OH), under setting [2], the 50% inhibitory concentration (IC50) amounted to 315 µM. `CCC[C@H](NC(=O)[C@@H]1C[C@@H](OCc2ccc(C(C)(C)C)cc2)CN1C(=O)[C@@H](NC(=O)[C@@H](NC(=O)[C@H](CC(=O)O)NC(=O)[C@H](CC(=O)O)NC(C)=O)[C@@H](C)CC)C(C)C)C(=O)O` [compound 209] (Ac-DDIV[Hyp](X5)[Nva]-OH): under setting [1], the IC50 stood at 2.6 µM. Consider `CC(=O)N[C@@H](CC(=O)O)C(=O)N[C@H](CCC(=O)O)C(=O)N[C@H](C(=O)N[C@@H](CCC(=O)O)C(=O)N[C@@H](CCC(=O)O)C(=O)NC1(C(=O)O)CC1)C1CCCCC1` [compound 132] (Ac-D[dE][Chg]EE[Ac3c]-OH), for which the IC50 under setting [2] was found to be 36 µM. `CCC[C@H](NC(=O)[C@@H]1C[C@@H](OCc2cccc3ccccc23)CN1C(=O)[C@@H](NC(=O)[C@@H](NC(=O)[C@H](CC(=O)O)NC(C)=O)[C@@H](C)CC)C(C)C)C(=O)O` [compound 219] (Ac-DIV[Hyp](CH2(1-naphthyl))[Nva]-OH): under setting [1], the IC50 amounted to 2.3 µM. For `CC[C@H](C)[C@H](NC(=O)[C@H](CCC(=O)O)NC(=O)[C@H](CC(=O)O)NC(C)=O)C(=O)N[C@H](C(=O)N1C[C@H](OCc2cccc(I)c2)C[C@H]1C(=O)NC1(C(=O)O)CC1)C(C)C` [compound 233] (Ac-DEIV[Hyp](X6)[Ac3c]-OH), the concentration for half-maximal inhibition (IC50) under setting [1] came out at 0.14 µM. As for `CC(=O)N[C@@H](CC(=O)O)C(=O)N[C@@H](CCC(=O)O)C(=O)N[C@H](C(=O)N[C@H](C(=O)N[C@@H](CCC(=O)OCc1ccccc1)C(=O)NC1(C(=O)O)CC1)C(C)C)C1CCCCC1` [compound 133] (Ac-DE[Chg]VE(OBn)[Ac3c]-OH), under setting [2], the 50% inhibitory concentration (IC50) was found to be 39 µM. `CCC[C@H](NC(=O)[C@@H]1C[C@@H](OCc2cccc3ccccc23)CN1C(=O)[C@@H](NC(=O)[C@@H](NC(=O)[C@H](CC(=O)O)NC(=O)[C@H](CC(=O)O)NC(C)=O)[C@@H](C)CC)C(C)C)C(=O)O` [compound 207] (Ac-DDIV[Hyp](CH2(1-naphthyl))[Nva]-OH): the IC50 under setting [1] is 0.39 µM. For `CC[C@H](C)[C@H](NC(=O)[C@H](CC(=O)O)NC(=O)CCC(=O)O)C(=O)N[C@H](C(=O)N1CCC[C@H]1C(=O)N[C@@H](CS)C(=O)O)C(C)C` [compound 103] (Suc-DIVPC-OH), the concentration for half-maximal inhibition (IC50) under setting [2] was determined as 26 µM. Turning to `CCC[C@H](NC(=O)[C@@H]1C[C@@H](OCc2ccccc2)CN1C(=O)[C@@H](NC(=O)[C@@H](NC(=O)[C@H](NC(=O)[C@H](CC(=O)O)NC(C)=O)C(C)C)[C@@H](C)CC)C(C)C)C(=O)O` [compound 202] (Ac-D[dV]IV[Hyp](Bn)[Nva]-OH), the IC50 under setting [1] came to 0.93 µM.

In the case of `CCC[C@H](NC(=O)[C@@H]1C[C@@H](OCc2ccc3ccccc3c2)CN1C(=O)[C@@H](NC(=O)[C@@H](NC(=O)[C@H](CC(=O)O)NC(=O)[C@H](CC(=O)O)NC(C)=O)[C@@H](C)CC)C(C)C)C(=O)O` [compound 208] (Ac-DDIV[Hyp](X1)[Nva]-OH), the half-inhibitory concentration (IC50) under setting [1] is 0.71 µM. As for `CC(=O)N[C@H](C(=O)N[C@H](C(=O)N1C[C@H](OCc2ccccc2)C[C@H]1C(=O)NC1(C(=O)O)CC1)C1CCCCC1)C1CCCCC1` [compound 234] (Ac-[Chg][Chg][Hyp](Bn)[Ac3c]-OH), under setting [1], the concentration for half-maximal inhibition (IC50) stood at 41 µM. On to `CC[C@H](C)[C@H](NC(=O)[C@H](CC(=O)O)NC(=O)[C@H](CC(=O)O)NC(C)=O)C(=O)N[C@H](C(=O)N1CCC[C@H]1C(=O)NC1(C(=O)O)CCCC1)C(C)C` [compound 125] (Ac-DDIVP[Ac5c]-OH), for which the IC50 under setting [2] amounted to 210 µM. On to `CCC[C@H](NC(=O)[C@@H]1C[C@@H](OCc2ccccc2)CN1C(=O)[C@@H](NC(=O)[C@@H](NC(=O)[C@@H](CCC(=O)O)NC(=O)[C@H](CC(=O)O)NC(C)=O)C1CCCCC1)C(C)C)C(=O)O` [compound 211] (Ac-D[dE][Chg]V[Hyp](Bn)[Nva]-OH), for which the IC50 under setting [1] amounted to 0.12 µM. For `CC(C)[C@H](NC(=O)[C@@H](NC(=O)CCCC(=O)O)C1CCCCC1)C(=O)N1C[C@H](OCc2cccc3ccccc23)C[C@H]1C(=O)NC1(C(=O)O)CC1` [compound 226] (Glutaryl-[Chg]V[Hyp](CH2(1-naphthyl))[Ac3c]-OH), the half-maximal inhibitory concentration (IC50) under setting [1] amounted to 0.76 µM.
